Values after ≈ are worked out from the molar mass of the structure shown.
Conditions: for aqueous solubility: pH 6.8

| Structure (SMILES) | MDR1-MDCK efflux ratio | fraction unbound, human plasma | fraction unbound, rat plasma | intrinsic clearance, human liver microsomes [mL/min/kg] | intrinsic clearance, rat liver microsomes [mL/min/kg] | aqueous solubility [µg/mL] |
| --- | --- | --- | --- | --- | --- | --- |
| Cc1ncsc1C(=O)N1CCCCC1c1nc(N(C)C)ncc1-c1cccc(Cl)c1 (stereo unspecified) | 1.28 | 0.00826 | 0.0105 | 236 | 1200 | 18.2 (≈ 41.2 µM) |
| Cc1cc2ncn(CC(=O)NC(C)(C)C)c2cc1C | 5.53 | – | – | ≤ 4.74 | 70.1 | 39.1 (≈ 151 µM) |
| CCN(CC)CCCNc1ncc(-c2cc(C)no2)c(-c2ccco2)n1 | 17.5 | – | – | 5.13 | 312 | 69.8 (≈ 196 µM) |
| CC(=O)N1CCN(c2c(Cl)cccc2NC(=O)COc2ccc(C(C)C)cc2)CC1 | 2.13 | – | – | 134 | 1990 | 2.7 (≈ 6.28 µM) |
| CCOc1nc(-c2ccc(Cl)c(Cl)c2)n(-c2cccc(NC(=O)c3ccc(F)cc3)c2)n1 | 2.67 | – | – | – | – | 0.25 (≈ 0.53 µM) |
| CN(C)S(=O)(=O)CCCN1CCC(CCC(N)=O)CC1 | 0.425 | – | – | ≤ 4.74 | ≤ 10.7 | – |
| CC1(CNC(=O)c2cncc(C3CCNCC3)n2)CCCO1 (stereo unspecified) | – | 0.974 | 0.912 | ≤ 4.74 | 21.3 | – |
| Cc1nc(C(C)C)sc1C(=O)Nc1nc(C(C)(C)C)cs1 | 0.306 | – | – | 27.8 | 398 | 11.8 (≈ 36.4 µM) |
| CCOc1cc2c(cc1CCC(=O)N1CCC(Cc3ncncc3C(N)=O)CC1)CCC2 | – | – | – | 564 | 1650 | 75.2 (≈ 172 µM) |
| CN(C)CCSc1nnnn1-c1ccc(Br)cc1 | 0.435 | – | – | 28.6 | 1740 | – |
| CN(C)c1cccc(C2CCN(c3ncccn3)CC2)n1 | – | – | – | 94.4 | 2250 | 16.9 (≈ 59.5 µM) |
| CNc1ncc2cc(-c3ccc(-c4cccc(C)n4)cc3Cl)c(=O)n(C[C@H]3OC[C@H](N)CO3)c2n1 | – | – | – | ≤ 4.74 | 170 | – |
| O=C(c1ccc(NS(=O)(=O)c2cccc3cccnc23)cc1)N1CCN(CC2CC2)CC1 | – | – | – | 75.9 | 604 | – |
| O=C(Cn1cc(NCc2cccc(Cl)c2)cn1)N1CCOCC1 | 4.24 | – | – | 5.9 | 71.9 | – |
| COc1ccc(CNc2ncc(-c3ccc4c(c3)OCO4)n2C)c(OC)c1 | 1.48 | – | – | 202 | 1590 | 42.5 (≈ 116 µM) |
| CCc1noc(COc2c(C)ccnc2Cl)n1 | – | – | – | – | – | 23.3 (≈ 91.8 µM) |
| Cc1cc(F)ccc1-c1nc(CCn2c(C)nc3ccccc32)no1 | 0.696 | – | – | 398 | 1800 | – |
| O=C1CC[C@H](O)[C@@H](c2cccc(Cl)c2)N1Cc1ccccc1 | 3.79 | – | – | 10.9 | 450 | 118 (≈ 375 µM) |
| NC1CC(NC(=O)c2ccc(-c3cn[nH]c3)cn2)C12CCC2 (stereo unspecified) | 8.96 | 0.513 | – | 8.51 | – | – |

| Structure (SMILES) | MDR1-MDCK efflux ratio | fraction unbound, human plasma | fraction unbound, rat plasma | intrinsic clearance, human liver microsomes [mL/min/kg] | intrinsic clearance, rat liver microsomes [mL/min/kg] | aqueous solubility [µg/mL] |
| --- | --- | --- | --- | --- | --- | --- |
| CC(C(O)c1ccc(O)cc1)N1CCC(Cc2ccccc2)CC1 (stereo unspecified) | 1.08 | – | – | 150 | 960 | 51.7 (≈ 159 µM) |
| CCCNC(=O)NS(=O)(=O)c1ccc(Cl)cc1 | – | 0.0933 | 0.0425 | ≤ 4.74 | 15.2 | – |
| C#CCNC(=O)CN1C(=O)c2ccccc2C1=O | – | – | – | – | – | 38.9 (≈ 161 µM) |
| Cc1ccc2[nH]c(C3CN(C(=O)Cc4cccc5ccccc45)C3)nc2c1 | 15.2 | – | – | – | – | 0.3 (≈ 0.844 µM) |
| Brc1cnc2ccccc2c1 | – | – | – | – | – | 0.925 (≈ 4.45 µM) |
| COc1cccc(OC)c1-c1cc(C(=O)N[C@@H](CC(C)C)C(=O)O)nn1-c1ccnc2cc(Cl)ccc12 | 39.1 | – | – | 9.49 | 108 | 90.4 (≈ 173 µM) |
| COc1cc(-c2cnc(NC3CC3)nc2-c2cccs2)nc(OC)n1 | – | – | – | 34.7 | 485 | – |
| Cc1cc(N)n(-c2ncnc3sc(C)c(-c4ccc(Cl)cc4)c23)n1 | 0.712 | – | – | 94.2 | 670 | 6.32 (≈ 17.8 µM) |
| NC(=O)c1csc(CN2CCc3cc(F)ccc3C2)c1 | 0.686 | – | – | 5.46 | 252 | – |
| O=C(CN1CCC(n2c(=O)[nH]c3ccccc32)CC1)N1CCc2ccccc21 | 51 | – | – | 10.4 | 393 | 21.9 (≈ 58 µM) |
| CC(C)(C)NC(=O)c1cnc(-c2ccc(Cl)s2)s1 | 0.494 | – | – | 41.6 | 167 | 1.1 (≈ 3.66 µM) |
| O[C@@H]1CCCC[C@H]1N1CCC(c2ccccc2)CC1 | 0.462 | – | – | ≤ 4.74 | 1390 | 46.5 (≈ 179 µM) |
| Cc1cccc(NCC2CCN(C(=O)c3ccccc3)CC2)n1 | 1.18 | – | – | 13.2 | 1110 | 28.5 (≈ 92.1 µM) |
| CN(Cc1ccc(Br)o1)C(=O)CN1CCCC1=O | 2.67 | – | – | ≤ 4.74 | 16.7 | 70 (≈ 222 µM) |
| NS(=O)(=O)OC[C@@H]1C[C@@H](n2ccc3c(N[C@H]4CCc5ccccc54)ncnc32)C[C@@H]1O | 51.9 | – | – | 40.9 | 680 | 44.4 (≈ 100 µM) |
| C[C@H](Cn1nc2c(cc1=O)CCCCC2)NC(=O)Cc1cccs1 | – | – | – | 153 | 817 | – |
| Cc1ccccc1CSc1ccc(-c2ccccn2)nn1 | 0.589 | – | – | 95.6 | 537 | 1.75 (≈ 5.96 µM) |
| CC1CN(C(=O)c2cccnc2N2CCOCC2)CC(c2ccccc2)O1 (stereo unspecified) | 5.22 | 0.374 | 0.359 | 35.9 | 554 | – |
| Cc1cc(CN2CCC(N(C)c3ncc(Cl)cn3)CC2)on1 | 0.58 | – | – | 16 | 127 | – |

| Structure (SMILES) | MDR1-MDCK efflux ratio | fraction unbound, human plasma | fraction unbound, rat plasma | intrinsic clearance, human liver microsomes [mL/min/kg] | intrinsic clearance, rat liver microsomes [mL/min/kg] | aqueous solubility [µg/mL] |
| --- | --- | --- | --- | --- | --- | --- |
| CCC(=O)N1CCCC(C(=O)N2CCc3c(Cl)cc(Cl)cc3C2C)C1 (stereo unspecified) | – | – | – | 416 | 1510 | 54.8 (≈ 143 µM) |
| CC(C)c1nc(S(=O)(=O)N2CC3(CC3)c3ccccc32)c[nH]1 | 8.26 | – | – | 789 | 3110 | – |
| Cc1cccc(Oc2ncccc2N)c1C | 0.588 | – | – | 11.7 | 308 | 45.3 (≈ 212 µM) |
| CCc1nc(N2CC(CO)C2)c2ccsc2n1 | 1.33 | – | – | 10.7 | 50 | – |
| N#Cc1ccc(CN2CC(n3cccn3)C2)cc1 | 0.596 | – | – | ≤ 4.74 | 20.7 | 36.5 (≈ 153 µM) |
| CCS(=O)(=O)N(C)c1ccc(N(C)C)cc1 | 0.579 | – | – | ≤ 4.74 | 2980 | – |
| Cc1cc(C(=O)O)c2ccc(F)cc2n1 | – | – | – | – | – | 24.8 (≈ 121 µM) |
| CCC(=O)Nc1cccc(Oc2nc(Nc3ccc(N4CCN(C)CC4)cc3OC)ncc2Cl)c1 | 14 | – | – | 15.9 | 238 | – |
| CN(Cc1cnn(C)c1)C(=O)c1ccccc1-c1ccccc1C#N | 19.3 | – | – | 64 | ≤ 10.7 | 40.4 (≈ 122 µM) |
| CC(C)(C)c1cc(NS(=O)(=O)c2c(Cl)cccc2Cl)cc(C(C)(C)C)c1 | – | – | – | 89.6 | 1030 | – |
| COc1nn(C)cc1C(=O)Nc1cccc2cnccc12 | – | 0.32 | 0.389 | 99.7 | 180 | 40.5 (≈ 143 µM) |
| Cc1nc(-c2ccccc2)c(C(=O)Nc2ccc(Cl)c(C(F)(F)F)c2)s1 | 0.723 | – | – | – | – | 0.42 (≈ 1.06 µM) |
| CCc1ncc2c(n1)CN(c1ccnc(-c3ccccc3)n1)CC2 | 0.485 | – | – | 36.1 | 259 | 34.9 (≈ 110 µM) |
| O=c1oc2cccnc2n1Cc1ccccn1 | 2.49 | – | – | ≤ 4.74 | ≤ 10.7 | – |
| COc1cc2c(cc1OC)CN(C(=O)C1CCCN(C(=O)Nc3ccccc3)C1)CC2 (stereo unspecified) | 27 | – | – | ≤ 4.74 | 65.1 | 65.5 (≈ 155 µM) |
| Cc1ccc(NC(=O)CN2CCCN(c3ccc(C(F)(F)F)cn3)CC2)c(F)c1 | 1.09 | – | – | 141 | 643 | 24.6 (≈ 59.9 µM) |
| COCCOc1ccc2c(c1)ncn2-c1ccc2cccc(N3CCC(N)CC3)c2n1 | – | – | – | 14.7 | 258 | 30.4 (≈ 72.7 µM) |
| CN(C)C(=O)COc1ccc(N)c(F)c1 | 0.766 | – | – | ≤ 4.74 | ≤ 10.7 | 43.8 (≈ 206 µM) |
| Cc1cccc(C)c1NCc1noc(C2CC2)n1 | – | – | – | 203 | 1540 | – |

From the Biogen ADME set (Fang et al. 2023)
